Assay results as given in patent US5206029A, “Medicament and its production and use in the treatment of pain, inflammation and fever in man and animals” (PAZ Arzneimittel-Entwicklungsgesellschaft mbH, priority 1990, dated 1993).

Columns and labels:
[1] = test system: carrageenin-induced paw oedema; assay: carrageenin-induced paw oedema of the rat; type: in vivo, rat (male Sprague-Dawley); conditions: for oedema inhibition: 0.3 mg./kg. per os, paw volume after 3 hours p.a., FIG. 4
Procedure: To male Sprague-Dawley rats, each with a body weight of 120 to 150 g., were administered per os with a stomach probe the test substances (0.3 mg./kg. body weight). Immediately thereafter, into the left rear paw was injected subplantary 0.1 ml. of a.1% carrageenin solution in order to induce oedema. After 3 hours p.a., the paw volumes were determined by means of a plethysmometer (modified method according to Hofrichter).

[2] = test system: interleukin 1-induced pain; assay: interleukin 1-induced pain test in rats; type: in vivo, rat; conditions: FIG. 2
Description: (§1) This unexpected result was verified by investigations in two animal models (mouse and rat).
(§2) FIGS. 1-4 are graphs of tests in rats for cramp pain, interleukin-1-inducedpain, prostaglandin production and carrageenin-induced paw oedema for the R(-) and S(+) enantiomers of flurbiprofen, […]

cramp pain = cramp pain test in mice; type: in vivo, mouse; conditions: FIG. 1
Description: as §1, §2

[3] = parameters: species or system mouse and rat; conditions: in vivo
Description: as §1

gastro-intestinal mucosa = assay: gastrointestinal toxicity in the rat (gastric ulcer index, intestinal ulcer); type: in vivo
Procedure: Each of the test groups were sacrificed after 24 hours, the stomach and intestines were removed and the stomach opened and cleaned with salt solution. The number of ulcerations multiplied with the diameter thereof in mm. is given as the "gastric ulcer index". The unopened small intestine was investigated for white and brown color changes. The corresponding sections were cut out and the weight thereof in comparison with the total weight plotted in % as "intestinal ulcer". The results are significant in the t-test in comparison with the control.

[4] = test system: macrophages (peritoneum of the mouse); assay: inhibition of prostaglandin liberation on macrophages (peritoneum of the mouse); type: cell-based
Procedure: Furthermore, contrary to the published state of knowledge (v. supra), S(+)-flurbiprofen in the case of administration after episiotomy is preferably effective antiphlogistically and not preferably analgesically. This further surprising test result was tested on two inflammation models selected independently of one another.

post-episiotomy pain = conditions: half dosage; A. Sunshine et al., Clin. Pharmacol Ther. 1987; cited from earlier work

| SMILES | oedema inhibition [1] [%] | analgesic effectiveness in the interleukin 1-induced pain test, R- versus S-enantiomer [2] | analgesic effectiveness in the cramp pain test, R- versus S-enantiomer (cramp pain) | inversion after administration [3] | toxicity on the gastrointestinal tract, compared with the racemate or the S(+)-enantiomer (gastro-intestinal mucosa; summary statement) | inflammation-inhibiting action in carrageenin paw oedema, compared with the R(-)-form ([1]; rat, FIGS. 3 and 4) | inhibition of the liberation of prostaglandin, compared with the R(-)-form [4] | damage of the gastro-intestinal mucosa (gastro-intestinal mucosa; rat, in vivo) | analgesic effectiveness compared with the racemate (post-episiotomy pain) |
| --- | --- | --- | --- | --- | --- | --- | --- | --- | --- |
| C[C@@H](C(=O)O)c1ccc(-c2ccccc2)c(F)c1 [R(-)-flurbiprofen] | 18 | equal or even more effective by about one third to a half | equal or even more effective by about one third to a half | no or only a very small inversion | lower grade toxicity on the gastrointestinal tract than the racemate or the S(+)-enantiomer |  |  |  |  |
| C[C@H](C(=O)O)c1ccc(-c2ccccc2)c(F)c1 [S(+)-flurbiprofen] | 64 |  |  | no or only a very small inversion |  | superior in its inflammation-inhibiting action to the R(-)-form | inhibits the liberation of prostaglandin more markedly than the R(-)-form | only S(+)-flurbiprofen caused damage | already more effective at half dosage |
